Where a name gives a salt, the structure may show the parent alone. ± gives the standard deviation of the averaged measurements.
Test system: HepaRG
Assay: LDH release cytotoxicity, % of total lysis control; higher = more cytotoxic
Conditions: 48 h
Method in brief: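 Eight-point half-log series of test chemicals, the highest at 100 µM, were given in duplicate for 48 h to single-lot HepaRG cells on collagen I-coated 96-well plates in serum-free induction medium with 0.5% DMSO. A Tecan Safire read resorufin fluorescence from CytoTox-ONE as a measure of LDH in 50 µL spent medium, with 0.1% Triton X in total lysis wells. Percent cytotoxicity was normalized to on-plate vehicle and total lysis controls and averaged over the duplicates.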

Compound | LDH release cytotoxicity (0.03162 µM) [%] | LDH release cytotoxicity (0.1 µM) [%] | LDH release cytotoxicity (0.3162278 µM) [%] | LDH release cytotoxicity (1 µM) [%] | LDH release cytotoxicity (3.16228 µM) [%] | LDH release cytotoxicity (10 µM) [%] | LDH release cytotoxicity (31.6228 µM) [%] | LDH release cytotoxicity (100 µM) [%] | other results
O=C1OC(=O)C2C3C=CC(C3)C12 (configuration not stated) [2-Norbornene-5,6-dicarboxylic anhydride] | -1.12 ± 0.28 | -0.887 ± 0.62 | -1.06 ± 0.25 | -1.3 ± 0.092 | -0.802 ± 0.41 | -1.42 ± 0.42 | -0.266 ± 0.16 | 1.32 ± 0.12 | 
O=C1C(=O)C(c2ccc(O)c(O)c2)Oc2cc(O)cc(O)c21 (configuration not stated) [Quercetin] | -0.715 ± 0.19 | -0.382 ± 0.42 | -1.09 ± 0.51 | -1.24 ± 0.47 | -0.569 ± 0.57 | -1.09 ± 0.29 | -1.1 ± 0.47 | 10.6 ± 1.9 | 
CC(=O)N1CCN(c2ccc(OCC3COC(Cn4ccnc4)(c4ccc(Cl)cc4Cl)O3)cc2)CC1 (configuration not stated) [Ketoconazole] | -3.06 ± 0.81 | -3.11 ± 0.33 | -2.22 ± 0.27 | -2.59 ± 0.32 | -2.26 ± 0.88 | 2.6 ± 2.2 | 1.63 ± 0.66 | 80.8 ± 7.1 | 
C=CCOC(=O)C(C)(C)OC(=O)c1cc(-n2c(=O)cc(C(F)(F)F)n(C)c2=O)ccc1Cl [Butafenacil] |  |  |  |  |  |  |  |  | LDH release cytotoxicity (0.0317809 µM): -1.79 ± 0.12%; LDH release cytotoxicity (0.1005 µM): -0.9 ± 0.18%; LDH release cytotoxicity (0.317809 µM): -0.684 ± 1.3%; LDH release cytotoxicity (1.005 µM): -2.04 ± 0.66%; LDH release cytotoxicity (3.17809 µM): -1.27 ± 0.17%; LDH release cytotoxicity (10.05 µM): -0.764 ± 0.69%; LDH release cytotoxicity (31.7809 µM): -0.16 ± 0.57%; LDH release cytotoxicity (100.5 µM): 1.19 ± 0.75%
O=C(O)c1cccc(CC2COc3ccc(OCc4nc5cc(F)ccc5s4)cc3C2O)c1 (configuration not stated) | -0.0534 ± 0.17 | -0.136 ± 0.15 | -0.338 ± 0.55 | -1.53 ± 0.39 | -0.67 ± 0.41 | -0.7031 ± 0.0048 | 0.475 ± 0.99 | 39.6 ± 3.9 | 
C=CC(=C)CCC=C(C)C [Myrcene] |  | -2.39 ± 1 |  | -1.45 ± 0.82 | -1.74 ± 1.4 | -1.93 ± 0.083 | -1.8 ± 0.49 | 0.279 ± 0.4 | LDH release cytotoxicity (0.031623 µM): -1.27 ± 1.6%; LDH release cytotoxicity (0.316228 µM): -2.35 ± 0.3%
OCC1OC2OC3C(CO)OC(OC4C(CO)OC(OC5C(CO)OC(OC6C(CO)OC(OC7C(CO)OC(OC1C(O)C2O)C(O)C7O)C(O)C6O)C(O)C5O)C(O)C4O)C(O)C3O (stereo not drawn) [alpha-Cyclodextrin] |  |  |  |  |  |  |  |  | LDH release cytotoxicity (0.016602 µM): -2.18 ± 0.47%; LDH release cytotoxicity (0.0525 µM): -2.3 ± 0.3%; LDH release cytotoxicity (0.16602 µM): -1.73 ± 1.5%; LDH release cytotoxicity (0.525 µM): -2.65 ± 2%; LDH release cytotoxicity (1.6602 µM): -2.1 ± 0.45%; LDH release cytotoxicity (5.25 µM): -1.71 ± 0.9%; LDH release cytotoxicity (16.601958 µM): -1.44 ± 0.78%; LDH release cytotoxicity (52.5 µM): 0.413 ± 1.5%
Cc1cccc(C)c1N [2,6-Dimethylaniline] | -1.3 ± 1.2 | -0.274 ± 0.54 | -0.695 ± 1.3 | -2 ± 0.2 | -1.29 ± 0.67 | -1.03 ± 0.33 | -0.842 ± 0.55 | 3.28 ± 2.6 | 
CCC(C)N(C)C(=O)c1cc2ccccc2c(-c2ccccc2Cl)n1 (configuration not stated) |  |  |  |  |  |  |  |  | LDH release cytotoxicity (0.02008 µM): -1.37 ± 0.062%; LDH release cytotoxicity (0.0635 µM): -2.28 ± 1.3%; LDH release cytotoxicity (0.200805 µM): -3.22 ± 1%; LDH release cytotoxicity (0.635 µM): -3.04 ± 1.1%; LDH release cytotoxicity (2.00805 µM): -2.99 ± 0.44%; LDH release cytotoxicity (6.35 µM): -2.9 ± 1.4%; LDH release cytotoxicity (20.0805 µM): -1.43 ± 0.19%; LDH release cytotoxicity (63.5 µM): 7.06 ± 0.25%
ClC1=C(Cl)C2(Cl)C3C4CC(C5OC45)C3C1(Cl)C2(Cl)Cl (configuration not stated) [Endrin] | -0.958 ± 0.053 | -0.149 ± 0.18 | -0.591 ± 0.61 | -0.635 ± 0.031 | -0.591 ± 0.57 | -0.724 ± 0.2 | 0.152 ± 0.33 | 6.26 ± 0.25 | 
Cc1cc(C2CC2)nc(Nc2ccccc2)n1 [Cyprodinil] | -1.37 ± 0.96 | -0.753 ± 0.69 | -0.874 ± 1.2 | -1.16 ± 0.7 | -0.24 ± 0.55 | -0.264 ± 0.58 | 0.71 ± 0.5 | 11.3 ± 0.15 | 
CN(C)c1ccccc1 [N,N-Dimethylaniline] |  |  |  |  |  |  |  |  | LDH release cytotoxicity (0.030516 µM): -0.91 ± 0.26%; LDH release cytotoxicity (0.0965 µM): -1.79 ± 0.17%; LDH release cytotoxicity (0.30516 µM): -1.99 ± 0.44%; LDH release cytotoxicity (0.965 µM): -2.41 ± 0.19%; LDH release cytotoxicity (3.0515979 µM): -1.849 ± 0.013%; LDH release cytotoxicity (9.65 µM): -1.69 ± 0.57%; LDH release cytotoxicity (30.516 µM): -2.11 ± 1.2%; LDH release cytotoxicity (96.5 µM): -0.103 ± 1.2%
CCOc1ccc2c(c1)C(C)=CC(C)(C)N2 [Ethoxyquin] | -1.26 ± 0.72 | -0.577 ± 0.97 | -1.06 ± 0.6 | -1.45 ± 1.1 | -1.65 ± 0.13 | -1.77 ± 0.58 | -1.67 ± 0.43 | -0.112 ± 2.2 | 
CCCCCCCCCCCCCCCCOS(=O)(=O)O [Sodium hexyldecyl sulfate] |  |  |  |  |  |  |  |  | LDH release cytotoxicity (0.01581 µM): -0.927 ± 0.59%; LDH release cytotoxicity (0.05 µM): -0.892 ± 0.52%; LDH release cytotoxicity (0.1581139 µM): -1.25 ± 0.18%; LDH release cytotoxicity (0.5 µM): -1.53 ± 0.15%; LDH release cytotoxicity (1.5811388 µM): -0.623 ± 0.48%; LDH release cytotoxicity (5 µM): -0.974 ± 0.097%; LDH release cytotoxicity (15.8114 µM): -0.978 ± 0.78%; LDH release cytotoxicity (50 µM): 10.6 ± 1.9%
Cc1ncc(CO)c(CO)c1O [Pyridoxine] | -3.02 ± 0.18 | -2.28 ± 1.7 | -2.33 ± 0.68 | -2.01 ± 0.55 | -2.69 ± 0.98 | -2.47 ± 0.94 | -2.46 ± 1.2 | 1.11 ± 0.51 | 
CCCC(=O)OCCC(C)C [Isopentyl butyrate] | 0.497 ± 0.0082 | -0.72 ± 1.4 | -0.446 ± 0.5 | -0.671 ± 1.2 | 0.184 ± 1.4 | 0.168 ± 0.62 | 0.438 ± 0.51 | 1.65 ± 0.66 | 
ClC(Cl)c1ccccc1 [Benzal chloride] | 0.273 ± 0.17 | -0.75 ± 0.78 | -0.461 ± 0.39 | -1.3 ± 1.2 | -1.29 ± 0.9 | 0.533 ± 0.9 | 1.06 ± 1.1 | 2.15 ± 0.29 | 
CCNc1ccccc1 [N-Ethylaniline] | -1.05 ± 0.66 | -1.82 ± 1.1 | -0.782 ± 1.1 | -2.09 ± 1.1 | -0.812 ± 0.9 | -0.444 ± 0.085 | -0.781 ± 0.36 | 0.942 ± 0.42 | 
COCc1cnc(C2=NC(C)(C(C)C)C(=O)N2)c(C(=O)O)c1 (configuration not stated) [Imazamox] | -0.37 ± 0.36 | -1.71 ± 1.1 | -1.61 ± 0.19 | -1.73 ± 0.34 | -1.43 ± 0.53 | -1.49 ± 0.15 | -2 ± 0.16 | -0.764 ± 0.39 | 
